In patent publication US20250059139A1, “COMPOUNDS FOR TREATMENT OF CANCER” (THE JOHNS HOPKINS UNIVERSITY, priority 2021, published 2025):
Where two headings read alike, the source gives them in different places.

Legend:
liver Cyp1a1 = assay: Mouse liver Cyp1a1 induction after oral dosing (Q-PCR); assay type: in vivo
Description: Real-time quantitative PCR (Q-PCR) analysis. […] ID NO: 2) and […] ID NO: 3). […] ID NO: 4) and […] ID NO: 5).

[1] = biological target: T1, nuclear MEF2/HDAC4/NCoR1 formation in CWR-22Rv1 cells (Homo sapiens, UniProt P56524); assay: Nuclear NCoR1 immunoprecipitated with MEF-2 antibody in CWR-22Rv1 cells under hypoxia; assay type: cell-based; settings: 1% O2, read-out: IC50 for inhibiting hypoxia-induced nuclear MEF2/HDAC4/NCoR1 formation (MEF-2 and NCoR1 IP)
T1 construct: endogenous in cells; host or cells: CWR-22Rv1 cells, nuclear extracts, 1% O2
T1 sequence (P56524 whole entry): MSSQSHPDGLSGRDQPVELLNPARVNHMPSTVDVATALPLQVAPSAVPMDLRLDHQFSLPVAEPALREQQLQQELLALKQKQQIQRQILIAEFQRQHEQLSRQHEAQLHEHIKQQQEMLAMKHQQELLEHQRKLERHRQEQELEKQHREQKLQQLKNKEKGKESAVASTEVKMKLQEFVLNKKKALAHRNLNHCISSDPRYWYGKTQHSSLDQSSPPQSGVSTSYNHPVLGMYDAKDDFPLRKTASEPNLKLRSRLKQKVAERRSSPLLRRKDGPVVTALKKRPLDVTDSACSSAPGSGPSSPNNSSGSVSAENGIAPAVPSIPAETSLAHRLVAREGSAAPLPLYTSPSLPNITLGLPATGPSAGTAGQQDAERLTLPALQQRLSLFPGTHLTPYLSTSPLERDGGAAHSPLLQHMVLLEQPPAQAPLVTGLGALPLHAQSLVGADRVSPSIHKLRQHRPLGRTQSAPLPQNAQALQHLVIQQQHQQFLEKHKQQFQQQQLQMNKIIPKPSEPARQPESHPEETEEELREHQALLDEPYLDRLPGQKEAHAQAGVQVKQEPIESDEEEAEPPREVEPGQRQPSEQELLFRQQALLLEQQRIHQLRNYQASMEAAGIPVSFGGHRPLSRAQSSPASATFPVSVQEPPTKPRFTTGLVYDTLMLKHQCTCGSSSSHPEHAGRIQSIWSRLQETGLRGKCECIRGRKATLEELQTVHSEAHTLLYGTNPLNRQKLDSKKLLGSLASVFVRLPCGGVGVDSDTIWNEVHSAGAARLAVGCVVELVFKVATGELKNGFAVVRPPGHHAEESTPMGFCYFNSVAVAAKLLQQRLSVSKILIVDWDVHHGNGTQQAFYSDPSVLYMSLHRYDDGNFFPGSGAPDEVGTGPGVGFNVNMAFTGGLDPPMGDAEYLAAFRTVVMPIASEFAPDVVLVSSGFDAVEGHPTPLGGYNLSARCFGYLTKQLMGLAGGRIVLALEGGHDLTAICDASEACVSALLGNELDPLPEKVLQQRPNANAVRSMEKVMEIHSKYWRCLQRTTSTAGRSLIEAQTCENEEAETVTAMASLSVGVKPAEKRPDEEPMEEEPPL
Description: While HIF-1α is required for the upregulation of hypoxia survival genes, it is not required for the hypoxia-induced widespread transcriptional repression, which is also needed for enhanced survival in the compromised TME (Denko et al. Nat Rev Cancer 8, 705-713 (2008)). MEF-2 is also a HDAC4 client (McKinsey et al. Trends Biochem Sci 27, 40-47 (2002)). MEF-2 dimers bind to target gene promoters, forming a hydrophobic groove composed of AA 1-78 of each monomer to which HDAC4 binds via its amphipathic helix at AA 168-184 (Han et al. J Mol Biol 345, 91-102 (2005)). When MEF-2 binds, HDAC4 forms a NCoR1/HDAC3 complex, which deacetylates MEF2 and histones within its proximity; thereby, repressing expression of its target genes (McKinsey 2002). When CWR-22Rv1 cells are switched from a 21% to a 1% 02 environment in vitro, there is a 3-fold increase in NCoR1 immunoprecipitated with MEF-2 from nuclear extracts (FIG. 36). Co-treatment with TasQ inhibits this hypoxia-induced increase in nuclear MEF2/HDAC4/NCoR1 formation with an IC50 of 5 μM (FIG. 36). These in vitro results are consistent with gene expression analysis of CWR22-RH PDX tissue from castrate hosts in vivo, which document that daily oral TasQ (10 mg/kg/d) inhibits the binding of NCoR1, and thus HDAC3 to the MEF-2/HDAC4 complex, relieving repression of MEF-2 target genes needed for survival under hypoxic conditions (Table 1B).

[2] = Pharmacokinetic (PK) analysis after oral dosing in mice; assay type: in vivo, mouse; settings: for half-life: oral, 10 mg/kg
Description: Oral Drug treatment. TasQ at the indicated dose was initially dissolved with equal molar 1 N sodium hydroxide. This solution was diluted with sterile water and the mixture stirred for 1 hr. The pH was then adjusted with 1 N HCl to 8.9 and 200 μL given daily via oral gavage.
Pharmacokinetic (PK) Analysis. Plasma or serum samples; 50 uL of plasma or serum was transferred into a 1.7 mL microfuge tube. Three volumes of acetonitrile containing 0.1% TFA was added and the sample was vortexed for 1 to 3 minute, then centrifuged at 13,000 RPM in a microcentrifuge. 120 uL of the resulting supernatant was loaded into a sample loop with a cut off volume of 100 uL and injected into the HPLC onto a C18 reverse phase column. The HPLC system was a WATERS 600 series quaternary system with a 2487 dual wavelength detector set at 215 nm and 332 nm. Mobile phase A was 5% Acetonitrile/water, 0.1% TFA Mobile phase B was 95% Acetonitrile/water, 0.1% TFA 1.5 mL/min 20% B to 98% B in 10 minutes, hold for 5 minutes return to initial condition for 4 minutes/Retention time for tasquinimod was 11 min, RT for ESATA20 was 13.3 min with no observable interference from endogenous mouse peaks.

COc1cccc2c1c(O)c(C(=O)N(C)c1ccc(C(F)(F)F)cc1)c(=O)n2C [TasQ, Tasquinimod]
induction of liver Cyp1a1 (liver Cyp1a1; daily oral 10 mg/kg, alone and in combination with B(a)P): > 50 fold | IC50 [1]: 5 µM | Cmax ([2]; 10 mg/kg oral dose, read-out: serum Cmax): 44 µM | serum drug level maintained ([2]; 4-week old FVB male mice, oral 10 mg/kg/d over 14 days): > 1 µM | Cmax ([2]; oral 5 mg/kg/d, 1 hr post-dosing, read-out: serum Cmax): 20 µM

COc1cccc2c1c(O)c(C(=O)N(c1ccc(C(F)(F)F)cc1)C1CCCCC1)c(=O)n2C [ESATA-20]
induction of liver Cyp1a1 (liver Cyp1a1; given orally at 30 mg/kg/d): lack of induction | IC50 [1]: < 1 µM | fold lower bioavailability than TasQ ([2]; 10 mg/kg oral): 5.5 fold | drug bound to serum proteins ([2]; mouse, in vivo): > 98% | half-life ([2]; mouse, serum, read-out: alpha half-life for tissue distribution (converted)): 3 h | half-life ([2]; mouse, serum, read-out: beta half-life for serum elimination): 10 to 12 h | Cmax ([2]; mouse, serum, 10 mg/kg oral dose): 7.91 µM
